# From patent US20250344731A1, “SALTY TASTE/UMAMI ENHANCER” (AJINOMOTO CO., INC., priority 2023, published 2025)
# What was measured:
# [1] = Sensory evaluation of umami enhancement function, naringenin/naringin added to sodium aspartate umami solution (Example 2); settings: 30 ppm added to NC2 (Asp-Na, sodium aspartate 0.2%); for umami intensity (points): NC2 = 0.10 point; for degree of umami enhancement (times): relative to NC2
# Method: (§1) As shown in Table 4: Umami solution (weight g/100 g), an umami solution was prepared. Water at ordinary temperature was used for preparation. Water, naringenin (Penta manufacturing) or naringin (IKEDA CORPORATION) were weighed and added to each of the prepared umami solutions or water at various concentrations shown in Table 5: Prepared sensory evaluation samples. The umami intensity of each sample was blindly evaluated using a scoring system in 0.01 point increments, with the umami intensity of water in test plot 1 as 0 point, the umami intensity of NC in test plot 3 as 0.30 points, and the umami intensity of NC2 in test plot 4 as 0.10 point. The evaluation was performed by a trained panel of three, and the average score of each panel was used. Samples whose umami intensity was enhanced by 1.5 times or more (sodium glutamate 0.45 points or more, sodium aspartate 0.15 points or more) due to the addition were evaluated to “have an umami enhancement function”. In addition, the presence or absence, and intensity of off-taste (bitterness and harsh taste other than umami) were also evaluated. The evaluation results are shown in Table 6: Sensory evaluation (umami intensity).
# [2] = Sensory evaluation of umami enhancement function, naringenin/naringin added to sodium glutamate umami solution or water (Example 2); settings: for umami enhancement function: addition to umami solution (sodium glutamate, sodium aspartate), 30 ppm, function = 1.5 times or more
# Method: as §1
# [3] = Sensory evaluation of saltiness enhancement function, naringenin/naringin added to NaCl aqueous solution (Example 1); settings: 30 ppm added to water (NaCl 0%); scale NC 0.8% NaCl = 1.00, PC 0.9% NaCl = 5.5; panel of three, average
# [4] = as above; settings: for saltiness intensity: scale NC = 1.00, PC 0.9% NaCl = 5.5; for saltiness enhancement function: addition of 1 ppm or more to salt water, function = saltiness intensity 1.8 points or more
# Method: As shown in Table 1: NaCl aqueous solution (weight g/100 g), various NaCl aqueous solutions (saline solutions) were prepared. Filtered water at ordinary temperature was used for preparation. Water, naringenin (Penta Manufacturing), or naringin (IKEDA CORPORATION) were weighed and added to the prepared 0.8% aqueous solution at various concentrations shown in Table 2: Prepared sensory evaluation samples. The saltiness intensity of each sample was blindly evaluated using a scoring system in 0.1 point increments, with the saltiness intensity of NC in test plot 1 as 1.00 point and the saltiness intensity of PC in test plot 2 as 5.5 points. The evaluation was performed by a trained panel of three, and the average score of each panel was used. Samples with a saltiness intensity of 1.8 points or more (NaCl 0.84% or more) due to the addition were evaluated to “have a saltiness enhancement function”. In addition, the presence or absence, and intensity of off-taste (bitterness and harsh taste other than saltiness) were also evaluated. The evaluation results are shown in Table 3: Sensory evaluation (saltiness intensity).
# [5] = Sensory evaluation of umami enhancement function, naringenin-related flavonoid components in umami solution (Example 4); settings: for degree of umami enhancement (times) / umami intensity (points): 30 ppm in NC (sodium glutamate 0.1%); for degree of umami enhancement (times): relative to NC; for umami intensity (points): scale water = 0, NC = 0.30, panel of three, average
# Method: • 1) The five naringenin-related flavonoid components evaluated in Example 3 were used. • 2) Quercetin was used as the control component. Umami solutions were prepared as shown in Table 10: Umami solution (weight g/100 g). Water at ordinary temperature was used for preparation. Each naringenin-related flavonoid component and the like dissolved in propylene glycol (SIGMA) at 10000 ppm was added to the prepared 0.1% umami aqueous solution such that the concentration at the time of eating was 30 ppm (Table 11). The umami intensity of each sample was blindly evaluated using a scoring system in 0.05 point increments, with the umami intensity of water in test plot 1 as 0 point and the umami intensity of NC in test plot 2 as 0.30 points. The evaluation was performed by a trained panel of three, and the average score was used. The umami enhancement function of samples whose umami intensity was enhanced by 1.5 times or more (sodium glutamate 0.45 points or more) due to the addition was evaluated to be functional. In addition, the presence or absence, and intensity of off-taste (bitterness and harsh taste other than umami) were also evaluated. The evaluation results are shown in Table 12: Sensory evaluation (umami intensity).
# [6] = Sensory evaluation of saltiness enhancement function, naringenin-related flavonoid components in NaCl aqueous solution (Example 3); settings: for saltiness intensity: 30 ppm in NC salt water (NaCl 0.8%), scale NC = 1.0, PC1 0.9% = 2.0, PC2 1.0% = 3.0, panel of three, average
# Description: 1) The following flavonoid components were used as naringenin-related flavonoid components: • Luteolin (manufactured by Salus Nutra Inc.), pinocembrin (manufactured by Xi'an Demeter Biotech Co., Ltd.), liquiritigenin (manufactured by Xi'an Julong Import and Export Co., Ltd.), apigenin (manufactured by Xi'an Best Bio-Tech Co., Ltd.), and acacetin (manufactured by Xi'an Reain Biotechnology Co., Ltd.)
# 2) The following compound was used as control component: Quercetin (manufactured by Medience Corporation) (structure shown below)
# As shown in Table 7: NaCl aqueous solution (weight g/100 g), various NaCl aqueous solutions (saline solutions) were prepared. Water at ordinary temperature was used for preparation.
# Each naringenin-related flavonoid component dissolved in propylene glycol (SIGMA) at 10000 ppm was added to the prepared 0.8% salt water solution such that the concentration at the time of eating (corresponding to the content of the present flavonoid component or a salt thereof in the oral ingestion product at the time of oral ingestion, as a flavonoid component relative to the oral ingestion product) was 30 ppm (Table 8).
# The saltiness intensity of each sample was blindly evaluated using a scoring system in 0.5 point increments, with the saltiness intensity of NC in test plot 1 as 1.0 point, the saltiness intensity of PC1 as 2.0 points, and the saltiness intensity of PC2 as 3.0 points. The evaluation was performed by a trained panel of three, and the average score was used. Since the saltiness intensity of 2.0 points of PC1 is evaluated to be clearly stronger in saltiness than NC, samples with a saltiness intensity of 1.5 points or more (NaCl 0.85% or more) were evaluated to have a saltiness enhancement function. In addition, the presence or absence, and intensity of off-taste (bitterness and harsh taste other than saltiness) were also evaluated. The evaluation results are shown in Table 9: Sensory evaluation (saltiness intensity).
# [7] = 30 ppm added to NC1 (MSG, sodium glutamate 0.1%), NC1 = 0.30 points
# [8] = 30 ppm added to NC1 (MSG, sodium glutamate 0.1%), relative to NC1
# [9] = 30 ppm added to water, scale water = 0, NC1 = 0.30, NC2 = 0.10
# [10] = 1 ppm added to NC salt water (NaCl 0.8%)
# [11] = 10 ppm added to NC salt water (NaCl 0.8%)
# [12] = 30 ppm added to NC salt water (NaCl 0.8%)
smiles,measurement,setting,value
"O=C1C[C@@H](c2ccc(O)cc2)Oc2cc(O)cc(O)c21 (stereo in doubt) [Naringenin, 5,7-dihydroxy-2-(4-hydroxyphenyl)chroman-4-one]",umami intensity (points),[1],0.20 points
same,degree of umami enhancement (times),[1],2.0 times
same,umami intensity (points),[2]; [7],0.47 points
same,degree of umami enhancement (times),[2]; [8],1.6 times
same,degree of umami enhancement (times),[2]; 30 ppm added to water,0 times
same,umami intensity (points),[2]; [9],0.00 points
same,umami enhancement function,[2],showed an umami enhancement function
same,saltiness intensity,[3],0 points
same,saltiness intensity,[4]; [10],1.9 points
same,saltiness intensity,[4]; 5 ppm added to NC salt water (NaCl 0.8%),2.4 points
same,saltiness intensity,[4]; [11],3.0 points
same,saltiness intensity,[4]; [12],2.9 points
same,saltiness enhancement function,[4],showed a saltiness enhancement function
"COc1ccc(-c2cc(=O)c3c(O)cc(O)cc3o2)cc1 [Acacetin, 5,7-dihydroxy-4-methoxyflavone]",degree of umami enhancement (times),[5],1.67 times
same,umami intensity (points),[5],0.50 points
same,saltiness intensity,[6],3.5 points
"O=c1cc(-c2ccc(O)cc2)oc2cc(O)cc(O)c12 [Apigenin, 5,7-dihydroxy-2-(4-hydroxyphenyl)-4H-1-benzopyran-4-one]",degree of umami enhancement (times),[5],1.87 times
same,umami intensity (points),[5],0.56 points
same,saltiness intensity,[6],3.5 points
"O=C1C[C@@H](c2ccc(O)cc2)Oc2cc(O)ccc21 [Liquiritigenin, (2S)-4′,7-dihydroxyflavan-4-one]",degree of umami enhancement (times),[5],1.87 times
same,umami intensity (points),[5],0.56 points
same,saltiness intensity,[6],3.5 points
"O=c1cc(-c2ccc(O)c(O)c2)oc2cc(O)cc(O)c12 [Luteolin, 2-(3,4-dihydroxyphenyl)-5,7-dihydroxy-4-chromenone]",degree of umami enhancement (times),[5],1.43 times
same,umami intensity (points),[5],0.43 points
same,umami enhancement effect,"[5]; 30 ppm in umami solution (sodium glutamate 0.1%), functional = 1.5 times or more",tendency to enhance umami
same,saltiness intensity,[6],2.0 points
"C[C@@H]1O[C@@H](O[C@H]2[C@H](Oc3cc(O)c4c(c3)O[C@H](c3ccc(O)cc3)CC4=O)O[C@H](CO)[C@@H](O)[C@@H]2O)[C@H](O)[C@H](O)[C@H]1O [Naringin, naringin, reference compound]",umami intensity (points),[1],0.12 points
same,degree of umami enhancement (times),[1],1.2 times
same,umami intensity (points),[2]; [7],0.35 points
same,degree of umami enhancement (times),[2]; [8],1.2 times
same,degree of umami enhancement (times),[2]; 30 ppm added to water,0 times
same,umami intensity (points),[2]; [9],0.00 points
same,umami enhancement function,[2],no enhancement of the umami intensity was observed
same,saltiness intensity,[3],0 points
same,saltiness intensity,[4]; [10],1.8 points
same,saltiness intensity,[4]; [11],2.1 points
same,saltiness intensity,[4]; [12],2.2 points
same,saltiness enhancement function,[4],also showed a saltiness enhancement function
"O=C1CC(c2ccccc2)Oc2cc(O)cc(O)c21 (stereo not drawn) [Pinocembrin, 5,7-dihydroxy-2-phenyl-2,3-dihydro-4H-chromene-4-one]",degree of umami enhancement (times),[5],1.67 times
same,umami intensity (points),[5],0.50 points
same,saltiness intensity,[6],2.0 points
"O=c1c(O)c(-c2ccc(O)c(O)c2)oc2cc(O)cc(O)c12 [Quercetin, reference compound]",degree of umami enhancement (times),[5],1.00 times
same,umami intensity (points),[5],0.30 points
same,saltiness intensity,[6],1.3 points
same,saltiness enhancement effect,"[6]; 30 ppm in salt water (NaCl 0.8%), function = 1.5 points or more",did not show a saltiness enhancement effect
